Source: publication PMC7265341, “Quantifying CDK inhibitor selectivity in live cells” (Nature Communications, 2020)
Where two headings read alike, the source gives them in different places.

Experiments:
CDK19/Cyclin C = CDK19/Cyclin C (Homo sapiens, UniProt Q9BWU1); experiment: NanoBRET live-cell target engagement, NanoLuc-CDK19/Cyclin C in HEK-293; settings: 10µM
CDK15/Cyclin Y = CDK15/Cyclin Y (Homo sapiens, UniProt Q96Q40); experiment: NanoBRET live-cell target engagement, NanoLuc-CDK15/Cyclin Y in HEK-293; type: binding; settings: 10µM
CDK4/Cyclin D1 = CDK4/Cyclin D1 (Homo sapiens, UniProt P11802); experiment: NanoBRET live-cell target engagement, NanoLuc-CDK4/Cyclin D1 in HEK-293; type: binding; settings: 10µM
CDK11B/Cyclin L2 = CDK11B/Cyclin L2 (Homo sapiens, UniProt P21127); experiment: NanoBRET live-cell target engagement, CDK11B-NanoLuc/Cyclin L2 in HEK-293; type: binding; settings: 10µM
CDK17/Cyclin Y = CDK17/Cyclin Y (Homo sapiens, UniProt Q00537); experiment: NanoBRET live-cell target engagement, CDK17-NanoLuc/Cyclin Y in HEK-293; type: binding; settings: 10µM
CDK7 = CDK7 (Homo sapiens, UniProt P50613); experiment: NanoBRET live-cell target engagement, NanoLuc-CDK7 in HEK-293; type: binding; settings: 10µM
CDK8/Cyclin C = CDK8/Cyclin C (Homo sapiens, UniProt P49336); experiment: NanoBRET live-cell target engagement, NanoLuc-CDK8/Cyclin C in HEK-293; type: binding; settings: 10µM
CDK12/Cyclin K = CDK12/Cyclin K (Homo sapiens, UniProt Q9NYV4); experiment: NanoBRET live-cell target engagement, CDK12-NanoLuc/Cyclin K in HEK-293; type: binding; settings: 10µM
CDK18/Cyclin Y = CDK18/Cyclin Y (Homo sapiens, UniProt Q07002); experiment: NanoBRET live-cell target engagement, CDK18-NanoLuc/Cyclin Y in HEK-293; type: binding; settings: 10µM
CDK5/CDK5R1 = CDK5/CDK5R1 (Homo sapiens, UniProt Q00535); experiment: NanoBRET live-cell target engagement, CDK5-NanoLuc/CDK5R1 in HEK-293; type: binding; settings: 10µM
CDK14/Cyclin Y = CDK14/Cyclin Y (Homo sapiens, UniProt O94921); experiment: NanoBRET live-cell target engagement, CDK14-NanoLuc/Cyclin Y in HEK-293; type: binding; settings: 10µM
CDK1/Cyclin E1 = CDK1/Cyclin E1 (Homo sapiens, UniProt P06493); experiment: NanoBRET live-cell target engagement, CDK1-NanoLuc/Cyclin E1 in HEK-293; type: binding; settings: 10µM
CDK6/Cyclin D1 = CDK6/Cyclin D1 (Homo sapiens, UniProt Q00534); experiment: NanoBRET live-cell target engagement, NanoLuc-CDK6/Cyclin D1 in HEK-293; type: binding; settings: 10µM
CDK16/Cyclin Y = CDK16/Cyclin Y (Homo sapiens, UniProt Q00536); experiment: NanoBRET live-cell target engagement, CDK16-NanoLuc/Cyclin Y in HEK-293; type: binding; settings: 10µM
CDK20/Cyclin H = CDK20/Cyclin H (Homo sapiens, UniProt Q8IZL9); experiment: NanoBRET live-cell target engagement, NanoLuc-CDK20/Cyclin H in HEK-293; type: binding; settings: 10µM
CDK3/Cyclin E1 = CDK3/Cyclin E1 (Homo sapiens, UniProt Q00526); experiment: NanoBRET live-cell target engagement, CDK3-NanoLuc/Cyclin E1 in HEK-293; type: binding
CDK10/Cyclin L2 = CDK10/Cyclin L2 (Homo sapiens, UniProt Q15131); experiment: NanoBRET live-cell target engagement, CDK10-NanoLuc/Cyclin L2 in HEK-293; settings: 10µM
CDK11A/Cyclin L2 = target: T1, CDK11A/Cyclin L2 (Homo sapiens, UniProt Q9UQ88); experiment: NanoBRET live-cell target engagement, CDK11A-NanoLuc/Cyclin L2 in HEK-293; type: binding; settings: 10µM
T1 sequence (Q9UQ88 1-783): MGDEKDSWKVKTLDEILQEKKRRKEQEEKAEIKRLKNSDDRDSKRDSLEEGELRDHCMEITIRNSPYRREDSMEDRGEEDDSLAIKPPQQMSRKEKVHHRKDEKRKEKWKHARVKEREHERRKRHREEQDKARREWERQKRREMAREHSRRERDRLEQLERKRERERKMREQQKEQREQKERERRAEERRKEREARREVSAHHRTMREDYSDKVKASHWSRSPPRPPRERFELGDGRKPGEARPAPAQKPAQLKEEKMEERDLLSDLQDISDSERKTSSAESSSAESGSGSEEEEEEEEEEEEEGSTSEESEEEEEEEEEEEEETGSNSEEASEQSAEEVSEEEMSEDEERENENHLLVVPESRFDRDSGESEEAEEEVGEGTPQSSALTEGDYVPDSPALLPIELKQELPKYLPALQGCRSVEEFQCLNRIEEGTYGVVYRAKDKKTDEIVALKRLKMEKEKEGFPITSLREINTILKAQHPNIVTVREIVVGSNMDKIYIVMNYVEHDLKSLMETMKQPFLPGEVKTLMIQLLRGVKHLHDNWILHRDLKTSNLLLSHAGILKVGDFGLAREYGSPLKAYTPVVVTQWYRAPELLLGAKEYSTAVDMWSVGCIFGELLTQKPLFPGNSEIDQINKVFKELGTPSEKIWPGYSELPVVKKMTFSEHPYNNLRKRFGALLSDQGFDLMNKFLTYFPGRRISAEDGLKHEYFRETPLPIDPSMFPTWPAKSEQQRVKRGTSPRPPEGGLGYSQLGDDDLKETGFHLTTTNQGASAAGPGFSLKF

CDK13/Cyclin K = CDK13/Cyclin K (Homo sapiens, UniProt Q14004); experiment: NanoBRET live-cell target engagement, CDK13-NanoLuc/Cyclin K in HEK-293; type: binding; settings: 10µM
CDK9/Cyclin K = CDK9/Cyclin K (Homo sapiens, UniProt P50750); experiment: NanoBRET live-cell target engagement, NanoLuc-CDK9/Cyclin K in HEK-293; type: binding; settings: 10µM

Sequence of CDK5/CDK5R1 (Q00535 whole entry): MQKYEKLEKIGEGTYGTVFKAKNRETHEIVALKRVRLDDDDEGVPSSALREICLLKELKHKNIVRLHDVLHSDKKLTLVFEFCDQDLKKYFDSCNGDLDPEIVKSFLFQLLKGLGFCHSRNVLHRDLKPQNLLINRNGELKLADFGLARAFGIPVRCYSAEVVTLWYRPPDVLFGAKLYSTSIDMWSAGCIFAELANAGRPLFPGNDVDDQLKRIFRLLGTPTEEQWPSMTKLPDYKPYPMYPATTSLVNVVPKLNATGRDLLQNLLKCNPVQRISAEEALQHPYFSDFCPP
Sequence of CDK5/CDK5R1 (Q15078 whole entry partner): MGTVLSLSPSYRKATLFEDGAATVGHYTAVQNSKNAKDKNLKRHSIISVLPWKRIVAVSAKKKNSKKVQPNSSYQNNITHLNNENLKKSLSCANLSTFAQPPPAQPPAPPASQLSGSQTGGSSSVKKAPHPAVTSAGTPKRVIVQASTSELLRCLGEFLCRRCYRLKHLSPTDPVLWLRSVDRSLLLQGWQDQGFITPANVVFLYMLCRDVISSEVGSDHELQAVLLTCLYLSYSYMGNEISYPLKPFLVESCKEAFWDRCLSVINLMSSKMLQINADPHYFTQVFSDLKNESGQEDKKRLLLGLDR
Sequence of CDK4/Cyclin D1 (P11802 whole entry): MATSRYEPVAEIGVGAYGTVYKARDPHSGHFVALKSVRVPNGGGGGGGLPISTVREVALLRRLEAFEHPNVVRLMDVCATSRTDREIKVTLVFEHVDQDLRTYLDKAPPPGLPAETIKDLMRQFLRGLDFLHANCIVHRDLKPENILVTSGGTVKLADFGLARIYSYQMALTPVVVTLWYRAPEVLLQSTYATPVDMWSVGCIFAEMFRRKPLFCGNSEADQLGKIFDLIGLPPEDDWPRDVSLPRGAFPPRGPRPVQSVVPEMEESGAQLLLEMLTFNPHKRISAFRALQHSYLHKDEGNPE
Sequence of CDK4/Cyclin D1 (P24385 whole entry partner): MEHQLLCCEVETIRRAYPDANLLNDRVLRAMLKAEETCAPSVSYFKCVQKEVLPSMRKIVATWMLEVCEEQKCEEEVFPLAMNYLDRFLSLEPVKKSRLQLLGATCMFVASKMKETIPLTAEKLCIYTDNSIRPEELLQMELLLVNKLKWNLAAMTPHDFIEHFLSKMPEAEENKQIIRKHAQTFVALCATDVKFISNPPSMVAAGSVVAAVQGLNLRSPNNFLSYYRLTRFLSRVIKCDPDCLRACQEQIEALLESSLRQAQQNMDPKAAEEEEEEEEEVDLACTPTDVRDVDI
Sequence of CDK18/Cyclin Y (Q07002 whole entry): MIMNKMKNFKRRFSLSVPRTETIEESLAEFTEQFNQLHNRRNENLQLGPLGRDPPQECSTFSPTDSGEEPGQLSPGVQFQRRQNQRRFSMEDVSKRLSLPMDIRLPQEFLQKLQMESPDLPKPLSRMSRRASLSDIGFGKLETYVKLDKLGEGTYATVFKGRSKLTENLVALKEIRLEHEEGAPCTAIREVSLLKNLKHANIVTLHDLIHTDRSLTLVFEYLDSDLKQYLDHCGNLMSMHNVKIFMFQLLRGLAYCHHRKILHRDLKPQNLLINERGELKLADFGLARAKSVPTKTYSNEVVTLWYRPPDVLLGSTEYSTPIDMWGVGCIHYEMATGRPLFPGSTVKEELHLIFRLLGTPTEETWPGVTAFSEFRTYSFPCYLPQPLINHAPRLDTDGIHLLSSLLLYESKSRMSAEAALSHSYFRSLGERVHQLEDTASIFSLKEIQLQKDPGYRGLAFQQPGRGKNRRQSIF
Sequence of CDK18/Cyclin Y (Q8ND76 whole entry partner): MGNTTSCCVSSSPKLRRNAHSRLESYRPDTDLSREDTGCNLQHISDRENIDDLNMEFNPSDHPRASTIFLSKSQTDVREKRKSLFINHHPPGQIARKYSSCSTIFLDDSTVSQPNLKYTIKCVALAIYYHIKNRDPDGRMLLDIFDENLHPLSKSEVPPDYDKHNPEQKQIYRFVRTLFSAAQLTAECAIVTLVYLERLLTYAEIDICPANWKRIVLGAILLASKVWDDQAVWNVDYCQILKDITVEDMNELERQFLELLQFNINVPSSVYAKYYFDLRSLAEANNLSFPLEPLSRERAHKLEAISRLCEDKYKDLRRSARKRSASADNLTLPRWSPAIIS
Sequence of CDK6/Cyclin D1 (Q00534 whole entry): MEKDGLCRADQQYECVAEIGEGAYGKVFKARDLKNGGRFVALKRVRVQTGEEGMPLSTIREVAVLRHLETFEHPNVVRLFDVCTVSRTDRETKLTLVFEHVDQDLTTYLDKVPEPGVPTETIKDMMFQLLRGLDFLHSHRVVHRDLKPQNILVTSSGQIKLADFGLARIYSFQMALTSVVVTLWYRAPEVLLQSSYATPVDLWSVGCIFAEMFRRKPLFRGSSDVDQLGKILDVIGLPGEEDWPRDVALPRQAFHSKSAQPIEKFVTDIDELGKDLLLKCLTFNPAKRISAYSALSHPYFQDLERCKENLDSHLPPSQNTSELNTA
Sequence of CDK6/Cyclin D1 (P24385 whole entry partner): as the sequence (P24385 whole entry partner) above
Sequence of CDK1/Cyclin E1 (P06493 whole entry): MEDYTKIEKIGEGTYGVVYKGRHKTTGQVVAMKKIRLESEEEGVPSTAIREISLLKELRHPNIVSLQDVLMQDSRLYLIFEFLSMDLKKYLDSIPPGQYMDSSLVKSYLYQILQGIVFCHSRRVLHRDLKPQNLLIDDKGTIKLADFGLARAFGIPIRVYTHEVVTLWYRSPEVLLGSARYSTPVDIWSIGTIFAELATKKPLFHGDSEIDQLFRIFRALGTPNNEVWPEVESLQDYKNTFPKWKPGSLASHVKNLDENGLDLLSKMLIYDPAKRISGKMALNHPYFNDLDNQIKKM
Sequence of CDK1/Cyclin E1 (P24864 whole entry partner): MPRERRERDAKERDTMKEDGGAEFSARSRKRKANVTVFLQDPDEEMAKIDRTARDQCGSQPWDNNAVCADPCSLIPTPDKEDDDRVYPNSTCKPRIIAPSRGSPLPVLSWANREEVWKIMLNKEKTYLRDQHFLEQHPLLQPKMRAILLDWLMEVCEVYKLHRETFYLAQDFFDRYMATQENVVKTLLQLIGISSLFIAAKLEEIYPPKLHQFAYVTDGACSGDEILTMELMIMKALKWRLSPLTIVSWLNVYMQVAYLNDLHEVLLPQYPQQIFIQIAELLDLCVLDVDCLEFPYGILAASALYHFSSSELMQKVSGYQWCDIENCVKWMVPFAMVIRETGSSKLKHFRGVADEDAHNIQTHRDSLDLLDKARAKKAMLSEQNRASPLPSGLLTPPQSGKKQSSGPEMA
Sequence of CDK17/Cyclin Y (Q00537 whole entry): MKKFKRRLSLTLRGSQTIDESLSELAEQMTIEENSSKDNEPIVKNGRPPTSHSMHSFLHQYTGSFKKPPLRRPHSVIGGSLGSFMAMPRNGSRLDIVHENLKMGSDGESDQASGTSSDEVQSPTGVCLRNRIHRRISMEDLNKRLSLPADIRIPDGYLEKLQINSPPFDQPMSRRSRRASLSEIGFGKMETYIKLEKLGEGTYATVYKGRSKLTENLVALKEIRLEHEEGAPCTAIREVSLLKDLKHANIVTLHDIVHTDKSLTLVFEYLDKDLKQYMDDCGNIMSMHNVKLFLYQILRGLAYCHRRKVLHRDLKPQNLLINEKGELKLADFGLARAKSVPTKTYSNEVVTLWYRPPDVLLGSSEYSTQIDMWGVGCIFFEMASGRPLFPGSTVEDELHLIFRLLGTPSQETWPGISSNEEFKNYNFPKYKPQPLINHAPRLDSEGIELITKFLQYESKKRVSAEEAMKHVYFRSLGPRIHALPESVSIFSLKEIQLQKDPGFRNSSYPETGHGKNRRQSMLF
Sequence of CDK17/Cyclin Y (Q8ND76 whole entry partner): as the sequence (Q8ND76 whole entry partner) above
Sequence of CDK19/Cyclin C (Q9BWU1 whole entry): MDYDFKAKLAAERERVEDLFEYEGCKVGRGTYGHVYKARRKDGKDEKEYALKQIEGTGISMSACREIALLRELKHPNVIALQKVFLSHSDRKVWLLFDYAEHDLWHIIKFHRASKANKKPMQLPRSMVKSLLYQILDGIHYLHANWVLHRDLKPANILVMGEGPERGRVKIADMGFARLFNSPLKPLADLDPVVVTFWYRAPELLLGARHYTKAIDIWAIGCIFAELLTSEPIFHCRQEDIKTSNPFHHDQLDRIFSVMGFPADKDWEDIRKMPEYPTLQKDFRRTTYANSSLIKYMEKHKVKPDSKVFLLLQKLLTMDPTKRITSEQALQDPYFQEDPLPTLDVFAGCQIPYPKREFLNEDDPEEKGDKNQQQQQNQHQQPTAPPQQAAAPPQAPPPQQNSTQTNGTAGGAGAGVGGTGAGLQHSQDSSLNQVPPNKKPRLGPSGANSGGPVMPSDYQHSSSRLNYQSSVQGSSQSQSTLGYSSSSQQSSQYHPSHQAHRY
Sequence of CDK19/Cyclin C (P24863 whole entry partner): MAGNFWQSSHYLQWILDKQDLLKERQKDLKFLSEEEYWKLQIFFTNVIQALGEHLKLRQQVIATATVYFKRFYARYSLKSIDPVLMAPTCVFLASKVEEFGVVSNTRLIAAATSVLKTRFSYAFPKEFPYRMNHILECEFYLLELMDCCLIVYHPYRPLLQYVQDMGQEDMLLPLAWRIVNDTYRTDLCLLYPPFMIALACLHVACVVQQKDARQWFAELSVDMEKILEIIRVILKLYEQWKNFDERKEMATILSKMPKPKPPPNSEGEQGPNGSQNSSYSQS
Sequence of CDK10/Cyclin L2 (Q15131 whole entry): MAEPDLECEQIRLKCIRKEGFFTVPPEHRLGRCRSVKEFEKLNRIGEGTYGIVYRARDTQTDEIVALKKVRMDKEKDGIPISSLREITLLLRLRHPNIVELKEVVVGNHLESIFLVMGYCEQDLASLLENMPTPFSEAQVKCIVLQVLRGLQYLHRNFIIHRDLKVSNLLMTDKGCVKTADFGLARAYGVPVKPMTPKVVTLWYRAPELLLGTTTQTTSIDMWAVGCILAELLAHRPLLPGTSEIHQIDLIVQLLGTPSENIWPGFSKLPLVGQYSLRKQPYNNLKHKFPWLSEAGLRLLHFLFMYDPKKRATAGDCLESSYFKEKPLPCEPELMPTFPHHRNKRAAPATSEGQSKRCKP

O=C1NC(=NCc2cccs2)S/C1=C\c1ccc2ncccc2c1 [RO-3306]
CDK19/C Inhibition at 10µM (%) (CDK19/Cyclin C; average of experiments): 19.5% | CDK19/C Inhibition at 10µM (%) (CDK19/Cyclin C; independent experiment 1): 15.2% | CDK19/C Inhibition at 10µM (%) (CDK19/Cyclin C; independent experiment 2): 23.8% | CDK15/Y Inhibition at 10µM (%) (CDK15/Cyclin Y; average of experiments): 22.3% | CDK15/Y Inhibition at 10µM (%) (CDK15/Cyclin Y; independent experiment 1): 12.8% | CDK15/Y Inhibition at 10µM (%) (CDK15/Cyclin Y; independent experiment 2): 31.8% | CDK4/D1 Inhibition at 10µM (%) (CDK4/Cyclin D1; average of experiments): -19.5% | CDK4/D1 Inhibition at 10µM (%) (CDK4/Cyclin D1; independent experiment 1): 11.3% | CDK4/D1 Inhibition at 10µM (%) (CDK4/Cyclin D1; independent experiment 2): -50.4% | CDK11b/L2 Inhibition at 10µM (%) (CDK11B/Cyclin L2; average of experiments): 10.3% | CDK11b/L2 Inhibition at 10µM (%) (CDK11B/Cyclin L2; independent experiment 1): 7.5% | CDK11b/L2 Inhibition at 10µM (%) (CDK11B/Cyclin L2; independent experiment 2): 13.1% | CDK17/Y Inhibition at 10µM (%) (CDK17/Cyclin Y; average of experiments): 40.0% | CDK17/Y Inhibition at 10µM (%) (CDK17/Cyclin Y; independent experiment 1): 13.8% | CDK17/Y Inhibition at 10µM (%) (CDK17/Cyclin Y; independent experiment 2): 66.1% | CDK7 Inhibition at 10µM (%) (CDK7; average of experiments): 57.8% | CDK7 Inhibition at 10µM (%) (CDK7; independent experiment 1): 37.4% | CDK7 Inhibition at 10µM (%) (CDK7; independent experiment 2): 78.3% | CDK8/C Inhibition at 10µM (%) (CDK8/Cyclin C; average of experiments): 17.8% | CDK8/C Inhibition at 10µM (%) (CDK8/Cyclin C; independent experiment 1): 15.7% | CDK8/C Inhibition at 10µM (%) (CDK8/Cyclin C; independent experiment 2): 20.0% | CDK12/K Inhibition at 10µM (%) (CDK12/Cyclin K; average of experiments): 10.6% | CDK12/K Inhibition at 10µM (%) (CDK12/Cyclin K; independent experiment 1): 8.2% | CDK12/K Inhibition at 10µM (%) (CDK12/Cyclin K; independent experiment 2): 13.0% | CDK18/Y Inhibition at 10µM (%) (CDK18/Cyclin Y; average of experiments): 16.9% | CDK18/Y Inhibition at 10µM (%) (CDK18/Cyclin Y; independent experiment 1): 3.1% | CDK18/Y Inhibition at 10µM (%) (CDK18/Cyclin Y; independent experiment 2): 30.7% | CDK5/CDK5R1 Inhibition at 10µM (%) (CDK5/CDK5R1; average of experiments): -1.8% | CDK5/CDK5R1 Inhibition at 10µM (%) (CDK5/CDK5R1; independent experiment 1): 10.9% | CDK5/CDK5R1 Inhibition at 10µM (%) (CDK5/CDK5R1; independent experiment 2): -14.5% | CDK14/Y Inhibition at 10µM (%) (CDK14/Cyclin Y; average of experiments): 0.0648% | CDK14/Y Inhibition at 10µM (%) (CDK14/Cyclin Y; independent experiment 1): 3.4% | CDK14/Y Inhibition at 10µM (%) (CDK14/Cyclin Y; independent experiment 2): -3.3% | CDK1/E1 Inhibition at 10µM (%) (CDK1/Cyclin E1; average of experiments): 81.7% | CDK1/E1 Inhibition at 10µM (%) (CDK1/Cyclin E1; independent experiment 1): 78.1% | CDK1/E1 Inhibition at 10µM (%) (CDK1/Cyclin E1; independent experiment 2): 85.3% | CDK6/D1 Inhibition at 10µM (%) (CDK6/Cyclin D1; average of experiments): 15.6% | CDK6/D1 Inhibition at 10µM (%) (CDK6/Cyclin D1; independent experiment 1): 22.8% | CDK6/D1 Inhibition at 10µM (%) (CDK6/Cyclin D1; independent experiment 2): 8.5% | CDK16/Y Inhibition at 10µM (%) (CDK16/Cyclin Y; independent experiment 1): 47.1% | CDK16/Y Inhibition at 10µM (%) (CDK16/Cyclin Y; independent experiment 2): 19.7% | CDK20/H Inhibition at 10µM (%) (CDK20/Cyclin H; independent experiment 1): 63.6% | CDK20/H Inhibition at 10µM (%) (CDK20/Cyclin H; independent experiment 2): 19.4% | CDK3/E1 Inhibition at 10µM (%) (CDK3/Cyclin E1; average of experiments): 74.0% | CDK3/E1 Inhibition at 10µM (%) (CDK3/Cyclin E1; independent experiment 1): 51.6% | CDK3/E1 Inhibition at 10µM (%) (CDK3/Cyclin E1; independent experiment 2): 96.3% | IC50 (CDK3/Cyclin E1; independent experiment 1, read-out: CDK3/E1 IC50): 0.14 µM | IC50 (CDK3/Cyclin E1; independent experiment 2, read-out: CDK3/E1 IC50): 0.28 µM | IC50 (CDK3/Cyclin E1; independent experiment 3, read-out: CDK3/E1 IC50): 0.184 µM | IC50 (CDK3/Cyclin E1; live HEK-293, 2 h, mean ± S.E.M. (n=3) or mean (n=2), read-out: IC50 for CDK/cyclin complexes, CDK3/E1): 0.2 µM | CDK10/L2 Inhibition at 10µM (%) (CDK10/Cyclin L2; average of experiments): 22.6% | CDK10/L2 Inhibition at 10µM (%) (CDK10/Cyclin L2; independent experiment 1): 6.5% | CDK10/L2 Inhibition at 10µM (%) (CDK10/Cyclin L2; independent experiment 2): 38.7% | CDK11a/L2 Inhibition at 10µM (%) (CDK11A/Cyclin L2; average of experiments): 25.4% | CDK11a/L2 Inhibition at 10µM (%) (CDK11A/Cyclin L2; independent experiment 1): 51.4% | CDK11a/L2 Inhibition at 10µM (%) (CDK11A/Cyclin L2; independent experiment 2): -0.5% | CDK13/K Inhibition at 10µM (%) (CDK13/Cyclin K; average of experiments): 7.2% | CDK13/K Inhibition at 10µM (%) (CDK13/Cyclin K; independent experiment 1): 3.3% | CDK13/K Inhibition at 10µM (%) (CDK13/Cyclin K; independent experiment 2): 11.1% | CDK9/K Inhibition at 10µM (%) (CDK9/Cyclin K; average of experiments): 29.2% | CDK9/K Inhibition at 10µM (%) (CDK9/Cyclin K; independent experiment 1): 10.0% | CDK9/K Inhibition at 10µM (%) (CDK9/Cyclin K; independent experiment 2): 48.5%
